Source: article PMC3913050 (Bioorganic & medicinal chemistry, 2013)

Columns and labels:
[1] = target: serotonin transporter (SERT) (Rattus norvegicus, UniProt P31652); assay: Inhibition of [3H]5-HT uptake by SERT in rat cerebral cortex; assay type: biochemical
[2] = target: norepinephrine transporter (NET) (Rattus norvegicus, UniProt Q63380); assay: Inhibition of [3H]DA uptake by NET in rat cerebral cortex
[3] = target: dopamine transporter (DAT) (Rattus norvegicus, UniProt P23977); assay: Inhibition of [3H]DA uptake by DAT in rat striatum; assay type: biochemical
Sequence of dopamine transporter (DAT) (P23977 whole entry): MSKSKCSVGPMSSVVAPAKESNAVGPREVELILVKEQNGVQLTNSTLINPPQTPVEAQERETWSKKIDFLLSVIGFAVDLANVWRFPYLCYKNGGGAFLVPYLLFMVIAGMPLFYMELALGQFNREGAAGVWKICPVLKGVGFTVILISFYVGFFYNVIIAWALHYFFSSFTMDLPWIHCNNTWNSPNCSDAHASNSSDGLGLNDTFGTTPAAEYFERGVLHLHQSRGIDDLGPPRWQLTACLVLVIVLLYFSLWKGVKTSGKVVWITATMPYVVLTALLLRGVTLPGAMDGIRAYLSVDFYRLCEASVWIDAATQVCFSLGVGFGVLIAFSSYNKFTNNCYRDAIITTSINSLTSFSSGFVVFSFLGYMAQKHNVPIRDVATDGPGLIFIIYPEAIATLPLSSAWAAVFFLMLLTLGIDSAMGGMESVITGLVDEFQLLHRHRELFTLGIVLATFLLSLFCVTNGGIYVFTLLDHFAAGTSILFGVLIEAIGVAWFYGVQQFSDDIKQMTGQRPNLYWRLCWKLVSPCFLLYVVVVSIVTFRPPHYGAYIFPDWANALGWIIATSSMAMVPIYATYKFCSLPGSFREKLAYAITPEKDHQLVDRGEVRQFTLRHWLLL

Sequence of norepinephrine transporter (NET) (Q63380 1-617): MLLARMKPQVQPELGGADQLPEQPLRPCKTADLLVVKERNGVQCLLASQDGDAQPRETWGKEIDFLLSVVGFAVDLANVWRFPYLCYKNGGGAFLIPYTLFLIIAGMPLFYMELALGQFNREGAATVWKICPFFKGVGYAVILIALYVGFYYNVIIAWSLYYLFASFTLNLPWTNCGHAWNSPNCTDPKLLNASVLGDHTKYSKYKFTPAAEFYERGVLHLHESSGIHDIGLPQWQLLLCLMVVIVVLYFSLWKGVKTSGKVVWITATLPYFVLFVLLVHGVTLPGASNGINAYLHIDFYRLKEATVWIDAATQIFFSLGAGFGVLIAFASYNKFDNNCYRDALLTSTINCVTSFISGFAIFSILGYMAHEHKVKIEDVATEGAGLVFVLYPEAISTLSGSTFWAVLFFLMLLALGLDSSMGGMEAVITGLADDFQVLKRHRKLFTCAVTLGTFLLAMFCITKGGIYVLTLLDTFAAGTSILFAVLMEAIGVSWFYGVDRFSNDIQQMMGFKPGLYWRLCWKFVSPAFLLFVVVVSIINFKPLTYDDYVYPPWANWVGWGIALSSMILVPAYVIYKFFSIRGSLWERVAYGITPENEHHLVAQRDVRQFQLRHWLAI
Sequence of serotonin transporter (SERT) (P31652 whole entry): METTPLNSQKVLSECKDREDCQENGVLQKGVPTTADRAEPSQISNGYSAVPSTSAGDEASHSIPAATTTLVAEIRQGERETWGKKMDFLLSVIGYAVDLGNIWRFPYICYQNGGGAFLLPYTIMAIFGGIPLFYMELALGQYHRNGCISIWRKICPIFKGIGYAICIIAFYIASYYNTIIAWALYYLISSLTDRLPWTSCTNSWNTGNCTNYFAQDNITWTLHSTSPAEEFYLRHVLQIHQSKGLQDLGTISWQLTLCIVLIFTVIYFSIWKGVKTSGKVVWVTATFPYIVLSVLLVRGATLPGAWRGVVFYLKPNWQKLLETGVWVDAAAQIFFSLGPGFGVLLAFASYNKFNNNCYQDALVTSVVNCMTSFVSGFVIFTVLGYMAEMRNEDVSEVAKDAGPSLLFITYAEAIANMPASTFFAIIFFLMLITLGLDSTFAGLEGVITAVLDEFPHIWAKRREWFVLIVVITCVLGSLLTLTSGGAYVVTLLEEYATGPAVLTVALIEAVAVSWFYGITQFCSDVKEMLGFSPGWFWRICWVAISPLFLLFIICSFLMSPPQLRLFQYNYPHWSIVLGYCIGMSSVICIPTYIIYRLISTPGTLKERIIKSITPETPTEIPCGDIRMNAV

activity against SERT (in words) ([1]; uptake inhibition)	activity against NET (in words) ([2]; uptake inhibition)	activity against DAT (in words) ([3]; uptake inhibition)	Molecule	Ki ([1]; read-out: Ki uptake inhibition, SERT, text value in µM) [µM]	Ki ([2]; read-out: Ki uptake inhibition, NET, text value in µM) [µM]	Ki ([3]; read-out: Ki uptake inhibition, DAT, text value in µM) [µM]
–	–	–	3-((((3S,5S)-5-benzhydryltetrahydrofuran-3-yl)amino)methyl)phenol [compound 40]	1.15	1.51	0.94
inactive	weak activity	weak activity	c1ccc(CCN[C@@H]2CO[C@H](C(c3ccccc3)c3ccccc3)C2)cc1 [compound 44, (3S,5S)-5-benzhydryl-N-phenethyltetrahydrofuran-3-amine]	–	–	–
